Measurements taken from article PMC9181987, “Disclosing the Potential of Fluorinated Ionic Liquids as Interferon-Alpha 2b Delivery Systems” (Nanomaterials, 2022).
Like-named read-outs stand apart in the source and are kept apart here.

What was measured:
IFN-α 2b = target: T1, IFN-α 2b (Homo sapiens, UniProt P01563); test: Intrinsic fluorescence spectroscopy of IFN-α 2b with FILs (λmax shift, Stern–Volmer quenching); assay type: binding
T1 construct: purchased Sigma-Aldrich SRP4595; host or cells: E. coli
Description: The concentrations were chosen to cover the range where the different aggregates of the FILs are formed. Samples, equilibrated for 30 min at room temperature, and 400 μL of each solution were transferred to a quartz cuvette of 10 mm pathlength and excited at 280 nm, collecting the fluorescence intensity in a wavelength range of 300 to 450 nm. The width of the excitation and emission slit was set to 5 nm for both cases. The spectra of FIL solutions (blanks) were discounted to the spectra of FIL + protein samples to avoid any possible effect of FIL concentration increment in the fluorescence intensity.
A very well-known equation, the Stern–Volmer, was used to characterize the quenching occurring in this region. This equation characterizes the collisional quenching that can occur when the excited state of the fluorophore is disabled due to contact with another molecule (quencher), without chemical alteration. Therefore, the collisional quenching is described by:(11) F0/F=1+K[Q]=1+kqτ0[Q] where F0 and F are the fluorescence intensities of the fluorophore in the absence and presence of the quencher, respectively, K is the Stern–Volmer quenching constant, kq is the biomolecular quenching constant, τ0 is the unquenched lifetime, and [Q] is the quencher concentration. […] This value gives information on the sensitivity of the fluorophore to a quencher.

[1] = Tensiometry (Du Noüy ring): surface tension breakpoints, surface properties, critical packing parameters; assay type: physicochemical; conditions: 25°C
Description: The force tensiometer is equipped with a platinum Du Noüy ring to surface tension measurement and a thermostatic vessel connected to a bath circulator (RW-0535G, Lab. Companion, Daejeon, Republic of Korea) in order to keep the temperature of the solution constant. Next, 15 mL of each sample was placed in a glass container and left to equilibrate in the thermostatic vessel. After temperature equilibration, the surface tension was measured. The equipment is a standalone-controlled instrument, and the calibration was conducted with a calibration weight with a known mass before measuring the samples. Each sample was measured five times, and the reported surface tension was the average value with an uncertainty of ±0.22 mN/m. Each solution was then assessed by a KSV’s contact angle goniometer CAM100 (Biolin Scientific, Gothenburg, Sweden). A drop of each solution was placed on a Teflon surface with a Hamilton syringe. This equipment is a PC-controlled instrument, and the tilt was set to 0 degrees at the base of the drop and was recorded for 10 frames with an interval of 1 s. The contact angle was calculated for the left and right sides of the drop and the mean value was the resulting contact angle. At least five different drops of each solution were recorded, and the reported contact angle was the resulting average with an uncertainty of ±5%.
After the evaluation of the CACs, other properties can be taken from the surface tension data. […] The n parameter is deduced from the degree of ionization of aggregates, α, as n = 2 − α, determined from the conductivity profile of the FIL and assumed to be the same for the surface layer in ionic surfactants.
From the Γmax and Avogadro’s number (NA) the minimum area occupied per surfactant molecule at the air/water interface, Amim, can be obtained as set by:(4) Amin=10^18/NAΓmax
In addition, the parameter that explains the efficacy of a surfactant to reduce the surface tension, ΠCAC, was determined, expressing the maximum surface tension diminution resulting from the dissolution of surfactant molecules. This parameter is determined by the surface tension of the solvent ( γ0 ) and the γCAC , as follows:(5) ΠCAC=γ0−γCAC
Them, from ΠCAC, the standard free energy of adsorption, ΔGad0 , was calculated using the following equation [55]:(6) ΔGad0=ΔGagg0−ΠCAC/Γmax
Finally, aiming to disclose information on the self-aggregation process and the shape of the aggregates, the critical packing parameter, P, was also calculated in this work, as follows:(7) P=V0/Aminlc where V0 and lc are the volume occupied by the hydrophobic chains in the aggregate core and the critical chain length, respectively. The structure of the aggregates is defined as spherical when P ≤ 0.33, cylindrical for P ≤ 0.5, lamellar when P ≤ 1, and inverted for P > 1 [38].

[2] = Dynamic light scattering: aggregate size and polydispersity index; assay type: physicochemical; conditions: 150 mM NaH2PO4, 25°C
Description: These concentrations were chosen to comprise two different aggregates of each FIL, above the 1st CAC and the 3rd CAC. […] Therefore, 20 μL was transferred into a quartz cell of 10 mm pathlength and measured at 25 °C.
Moreover, the polydispersity index (PdI) was obtained by DLS which determines the heterogeneity of the sample in the function of the size.

[3] = parameters: method as in earlier work; conditions: 25°C, ref [1], cited from earlier work
[4] = 5 μg/mL IFN-α 2b + 5 mM NaH2PO4 (pH=7.4), 1st breakpoint
[5] = 5 μg/mL IFN-α 2b + 5 mM NaH2PO4 (pH=7.4), 2nd breakpoint
[6] = 5 μg/mL IFN-α 2b + 5 mM NaH2PO4 (pH=7.4), 3rd breakpoint
[7] = 5 μg/mL IFN-α 2b + 5 mM NaH2PO4 (pH=7.4), 4th breakpoint

T1 sequence (P01563 24-188): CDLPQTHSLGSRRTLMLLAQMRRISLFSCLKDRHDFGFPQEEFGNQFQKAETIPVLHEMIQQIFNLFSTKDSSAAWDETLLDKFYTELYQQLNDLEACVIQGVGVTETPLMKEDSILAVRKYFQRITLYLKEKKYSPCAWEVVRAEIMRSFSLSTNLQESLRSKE

## CCn1cc[n+](C)c1.O=S(=O)([O-])C(F)(F)C(F)(F)C(F)(F)C(F)(F)F [[C2C1Im][C4F9SO3], 1-Ethyl-3-methylimidazolium perfluorobutanesulfonate]
IFN-α 2b; IFN-α 2b 20 μg/mL, region ~14 mM to ~110 mM FIL, 5 mM NaH2PO4 pH 7.4, excitation 280 nm
  Stern–Volmer quenching constant K: 0.0106 mM⁻¹
IFN-α 2b; from K and τ0 of IFN-α 2b
  biomolecular quenching constant kq: 3.59e+09 M⁻¹ s⁻¹
[1]; [4]
  CAC (wFIL), tensiometer: 0.0008
  CAC, tensiometer: 1.963 mmol⸱kg-1
  surface tension at CAC, γCAC: 51.4 mN m-1
[1]; [5]
  CAC (wFIL), tensiometer: 0.0025
  CAC, tensiometer: 6.105 mmol⸱kg-1
  surface tension at CAC, γCAC: 48.2 mN m-1
[1]; [6]
  CAC (wFIL), tensiometer: 0.0089
  CAC, tensiometer: 21.61 mmol⸱kg-1
  surface tension at CAC, γCAC: 38.3 mN m-1
[1]; [7]
  10^6 Γmax, maximum surface excess concentration: 4.41 mol m-2
  Amin, minimum area per surfactant molecule at the air/water interface: 0.38 nm2
  CAC (wFIL), tensiometer: 0.0335
  CAC, tensiometer: 81.59 mmol⸱kg-1
  critical packing parameter Peq 8: 0.7439
  critical packing parameter Peq 9: 0.7481
  surface tension at CAC, γCAC: 24.3 mN m-1
  ΔG0ad, standard free energy of adsorption: -7.734 kcal/mol
  ΠCAC, efficacy to reduce the surface tension: 37.8 mN m-1
[1]; 5 mM NaH2PO4 (pH=7.4)
  10^6 Γmax, maximum surface excess concentration: 3.26 mol m-2
  Amin, minimum area per surfactant molecule at the air/water interface: 0.51 nm2
  CAC (wFIL), tensiometer: 0.0330
  CAC, tensiometer: 80.35 mmol⸱kg-1
  critical packing parameter Peq 8: 0.550
  critical packing parameter Peq 9: 0.553
  surface tension at CAC, γCAC: 24.6 mN m-1
  ΔG0ad, standard free energy of adsorption: -9.8 kcal/mol
  ΠCAC, efficacy to reduce the surface tension: 46.4 mN m-1
[2]; 29.3 mM FIL
  Polydispersity index (PdI): 1.000
[2]; 243.8 mM FIL
  Polydispersity index (PdI): 0.157
[3]
  Amin, minimum area per surfactant molecule at the air/water interface: 0.64 nm2
[3]; Water
  10^6 Γmax, maximum surface excess concentration: 2.60 mol m-2
  CAC (wFIL), tensiometer: 0.0375
  CAC, tensiometer: 91.39 mmol⸱kg-1
  critical packing parameter Peq 8: 0.439
  critical packing parameter Peq 9: 0.442
  surface tension at CAC, γCAC: 24.5 mN m-1
  ΔG0ad, standard free energy of adsorption: -10.6 kcal/mol
  ΠCAC, efficacy to reduce the surface tension: 44.4 mN m-1
